Measurements as given in EPA's ToxValDB 9.5 (doi:10.2903/j.efsa.2017.4700).
Converted amounts (≈) assume the structure as drawn. “And” between values parts separate entries of the source, which are not always exact repeats. Identical values can stand only once.

How the values were obtained:
[1] = reproduction developmental; clinical signs
[2] = tested on: Apis mellifera; settings: acute, mortality
[3] = tested on: Canidae; settings: Dog Other, hematological
[4] = tested on: Colinus virginianus
[5] = tested on: Daphnia magna; settings: chronic/long-term; duration: 21 days; growth
[6] = tested on: Oncorhynchus mykiss; settings: acute; mortality
[7] = tested on: Pimephales promelas; settings: chronic/long-term; other
[8] = tested on: Rattus norvegicus
[9] = tested on: Tagia sp.; settings: chronic/long-term; reproduction
[10] = tested on: Typhlodromus pyri; assay: LR50; higher = less toxic; settings: not reported; mortality

CN(C)C(=S)SSC(=S)N(C)C [Bis(dimethylaminothiocarbonyl) disulfide]
NOAEL [1]: 1.6 mg/kg-day | LD50 ([2]; dermal): > 100 µg/piece | LD50 ([2]; oral, unspecified): > 107 µg/piece | NOAEL ([3]; chronic, duration: 1 years): 0.84 mg/kg-day | NOAEL ([3]; subchronic, duration: 90 days): 2 mg/kg-day | LD50 ([4]; acute, oral, mortality): 930 mg/kg-day | NOEC ([4]; reproduction developmental): 37.5 mg/kg-day | NOEC [5]: 20 µg/L | LC50 [6]: 0.171 mg/L (≈ 0.711 µM) | NOEC [7]: 1.1 µg/L | LD50 ([8]; acute, oral, mortality): 1800 mg/kg-day | NOAEL ([8]; chronic): 1.6 mg/kg-day | NOAEL ([8]; chronic, duration: 2 years, body weight): 1.5 mg/kg-day | NOAEL ([8]; reproduction developmental, body weight): < 7.5 mg/kg-day and 3 mg/kg-day | NOEC [9]: 8.45 mg/kg | LR50 [10]: 511 g/ha
